Where two headings read alike, the source gives them in different places.
What was measured:
MRCKβ [1] = biological target: T1, MRCKβ (Homo sapiens (Human), UniProt Q9Y5S2); assay: MRCKβ kinase assay (IMAP fluorescence polarization); format: biochemical
Excerpt: (§1) MRCKα, MRCKβ, ROCK1 and ROCK2 Kinase Assays

MRCKβ [2] = biological target: T1, MRCKβ; assay: MRCKβ cellular assay (pMLC T18/S19 immunoblot, MDA-MB-231 cells with doxycycline inducible kinase domain); format: cell-based
Procedure: (§2) MRCKβ, ROCK1 and ROCK2 Cellular Assays
(§3) MDA-MB-231 cells expressing doxycycline inducible ROCK1, ROCK2 or MRCKβ kinase domains were plated at 1.1×10^5 cells per well of a 12 well plate. After 24 hours, cells were treated with 1 μg/ml doxycycline for 18 hours to induce kinase domain expression and then tested over a suitable concentration range with compounds of the invention for 60 minutes. Cells were then washed with PBS and lysed with Tris-SDS lysis Buffer (50 mM Tris-HCl pH7.4, 0.5% (v/v) SDS, 1×PhosStop Inhibitors (04 906 837 001; Roche) and 1×Complete Protease Inhibitors (04 693 124 001; Roche)). Whole cell lysates were clarified by passing through QIAshredder spin columns, separated by SDS-PAGE, and quantitative immunoblotting performed using a LI-COR Odyssey IR scanner to determine pMLC (T18/S19) and α-Tubulin levels.

ROCK2 = ROCK2 (Homo sapiens (Human), UniProt O75116); assay: ROCK2 kinase assay (IMAP fluorescence polarization); format: biochemical
MRCKα = MRCKα (Homo sapiens (Human), UniProt Q5VT25); assay: MRCKα kinase assay (IMAP fluorescence polarization); format: biochemical
Excerpt: as §1

ROCK1 [3] = biological target: T2, ROCK1 (Homo sapiens (Human), UniProt Q13464); assay: ROCK1 cellular assay (pMLC T18/S19 immunoblot, MDA-MB-231 cells with doxycycline inducible kinase domain); format: cell-based
Procedure: as §2, §3

ROCK1 [4] = biological target: T2, ROCK1; conditions: read-out: ROCK1 Average Ki; 1 μM ATP
ROCK1 [5] = biological target: T2, ROCK1; assay: biochemical
[6] = 1 μM ATP, read-out: MRCK-B Average Ki
[7] = MDA-MB-231 cells, doxycycline inducible kinase domain, 60 minutes, pMLC (T18/S19), read-out: Cellular assay - MRCK-b inhibition MEAN
[8] = 1 μM ATP, read-out: ROCK2 Average Ki
[9] = 1 μM ATP, read-out: MRCK-a Average Ki
[10] = MDA-MB-231 cells, doxycycline inducible kinase domain, 60 minutes, pMLC (T18/S19), read-out: Cellular assay - ROCK1 inhibition MEAN

Sequence of MRCKα (Q5VT25 whole entry): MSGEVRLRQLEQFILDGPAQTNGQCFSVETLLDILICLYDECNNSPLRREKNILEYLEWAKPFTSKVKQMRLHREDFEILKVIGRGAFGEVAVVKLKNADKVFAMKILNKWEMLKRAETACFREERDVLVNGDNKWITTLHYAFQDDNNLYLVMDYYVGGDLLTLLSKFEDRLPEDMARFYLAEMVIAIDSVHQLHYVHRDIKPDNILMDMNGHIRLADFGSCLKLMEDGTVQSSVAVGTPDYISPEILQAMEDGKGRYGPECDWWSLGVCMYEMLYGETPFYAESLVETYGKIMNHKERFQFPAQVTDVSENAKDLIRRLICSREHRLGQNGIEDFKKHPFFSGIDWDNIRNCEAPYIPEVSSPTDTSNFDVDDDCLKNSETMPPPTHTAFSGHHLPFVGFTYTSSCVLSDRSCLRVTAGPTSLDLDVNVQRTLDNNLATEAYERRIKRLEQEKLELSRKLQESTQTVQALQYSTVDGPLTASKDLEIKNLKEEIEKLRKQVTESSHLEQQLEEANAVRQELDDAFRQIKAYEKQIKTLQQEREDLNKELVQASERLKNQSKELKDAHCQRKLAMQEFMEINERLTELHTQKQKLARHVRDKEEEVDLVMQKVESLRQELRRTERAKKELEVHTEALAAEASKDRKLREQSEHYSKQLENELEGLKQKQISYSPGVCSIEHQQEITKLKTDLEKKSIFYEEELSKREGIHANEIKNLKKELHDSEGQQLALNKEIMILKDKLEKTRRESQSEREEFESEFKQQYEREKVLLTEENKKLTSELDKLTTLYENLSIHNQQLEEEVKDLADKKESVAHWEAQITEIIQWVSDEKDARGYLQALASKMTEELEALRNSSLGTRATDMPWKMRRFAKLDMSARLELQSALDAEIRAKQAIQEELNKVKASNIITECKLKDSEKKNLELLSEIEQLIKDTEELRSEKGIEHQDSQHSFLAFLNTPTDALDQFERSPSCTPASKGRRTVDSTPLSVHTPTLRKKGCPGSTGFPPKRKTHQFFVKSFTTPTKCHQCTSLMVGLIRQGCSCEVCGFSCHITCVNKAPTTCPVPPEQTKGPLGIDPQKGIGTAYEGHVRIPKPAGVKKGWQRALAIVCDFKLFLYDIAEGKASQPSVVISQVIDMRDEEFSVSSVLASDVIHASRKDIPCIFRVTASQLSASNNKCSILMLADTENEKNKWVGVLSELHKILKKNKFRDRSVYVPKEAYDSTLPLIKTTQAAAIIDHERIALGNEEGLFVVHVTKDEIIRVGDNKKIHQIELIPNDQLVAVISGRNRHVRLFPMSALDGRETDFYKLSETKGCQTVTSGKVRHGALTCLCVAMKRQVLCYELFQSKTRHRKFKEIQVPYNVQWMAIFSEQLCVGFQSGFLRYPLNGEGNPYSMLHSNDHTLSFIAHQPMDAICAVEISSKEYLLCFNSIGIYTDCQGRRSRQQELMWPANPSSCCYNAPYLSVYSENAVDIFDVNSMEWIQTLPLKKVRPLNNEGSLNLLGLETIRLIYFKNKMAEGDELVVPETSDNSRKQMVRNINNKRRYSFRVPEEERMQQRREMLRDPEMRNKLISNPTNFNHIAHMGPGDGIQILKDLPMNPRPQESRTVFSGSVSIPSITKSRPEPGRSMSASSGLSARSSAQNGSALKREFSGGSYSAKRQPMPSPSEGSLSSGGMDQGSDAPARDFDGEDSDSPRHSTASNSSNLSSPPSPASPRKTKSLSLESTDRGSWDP
Sequence of ROCK2 (O75116 whole entry): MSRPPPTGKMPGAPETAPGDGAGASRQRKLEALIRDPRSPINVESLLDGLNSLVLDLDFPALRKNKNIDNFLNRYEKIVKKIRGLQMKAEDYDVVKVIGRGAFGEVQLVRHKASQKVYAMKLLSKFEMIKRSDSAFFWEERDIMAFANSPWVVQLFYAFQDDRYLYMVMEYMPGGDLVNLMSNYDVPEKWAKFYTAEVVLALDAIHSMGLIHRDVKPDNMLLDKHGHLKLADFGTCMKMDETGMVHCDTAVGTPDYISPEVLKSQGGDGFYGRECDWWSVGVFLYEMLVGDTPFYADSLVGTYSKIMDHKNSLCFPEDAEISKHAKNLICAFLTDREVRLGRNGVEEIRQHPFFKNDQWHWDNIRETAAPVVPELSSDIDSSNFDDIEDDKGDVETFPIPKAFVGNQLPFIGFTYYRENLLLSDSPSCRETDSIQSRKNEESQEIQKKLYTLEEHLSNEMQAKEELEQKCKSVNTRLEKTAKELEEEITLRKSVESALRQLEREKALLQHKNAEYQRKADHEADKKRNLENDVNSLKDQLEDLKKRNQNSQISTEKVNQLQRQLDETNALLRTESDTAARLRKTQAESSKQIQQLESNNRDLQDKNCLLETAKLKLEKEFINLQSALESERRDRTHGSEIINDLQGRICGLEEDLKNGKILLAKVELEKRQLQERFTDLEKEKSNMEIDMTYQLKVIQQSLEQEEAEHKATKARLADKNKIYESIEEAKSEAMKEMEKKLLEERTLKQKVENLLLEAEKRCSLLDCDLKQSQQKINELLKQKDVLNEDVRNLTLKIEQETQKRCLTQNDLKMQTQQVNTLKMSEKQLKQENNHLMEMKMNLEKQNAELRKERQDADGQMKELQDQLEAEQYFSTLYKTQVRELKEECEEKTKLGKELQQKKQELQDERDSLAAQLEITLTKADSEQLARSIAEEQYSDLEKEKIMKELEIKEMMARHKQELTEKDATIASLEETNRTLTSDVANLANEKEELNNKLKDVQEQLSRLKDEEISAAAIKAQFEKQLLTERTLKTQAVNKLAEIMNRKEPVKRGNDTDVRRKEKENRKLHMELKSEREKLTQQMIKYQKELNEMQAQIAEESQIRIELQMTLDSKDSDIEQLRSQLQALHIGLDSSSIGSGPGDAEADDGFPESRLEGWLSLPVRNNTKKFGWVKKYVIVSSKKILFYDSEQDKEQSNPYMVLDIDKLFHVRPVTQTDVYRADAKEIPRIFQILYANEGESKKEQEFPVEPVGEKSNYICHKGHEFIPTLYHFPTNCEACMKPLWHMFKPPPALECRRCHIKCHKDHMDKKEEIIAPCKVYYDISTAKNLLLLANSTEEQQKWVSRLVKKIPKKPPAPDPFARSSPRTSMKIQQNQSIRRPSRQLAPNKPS
T2 sequence (Q13464 2-1354 limits assumed): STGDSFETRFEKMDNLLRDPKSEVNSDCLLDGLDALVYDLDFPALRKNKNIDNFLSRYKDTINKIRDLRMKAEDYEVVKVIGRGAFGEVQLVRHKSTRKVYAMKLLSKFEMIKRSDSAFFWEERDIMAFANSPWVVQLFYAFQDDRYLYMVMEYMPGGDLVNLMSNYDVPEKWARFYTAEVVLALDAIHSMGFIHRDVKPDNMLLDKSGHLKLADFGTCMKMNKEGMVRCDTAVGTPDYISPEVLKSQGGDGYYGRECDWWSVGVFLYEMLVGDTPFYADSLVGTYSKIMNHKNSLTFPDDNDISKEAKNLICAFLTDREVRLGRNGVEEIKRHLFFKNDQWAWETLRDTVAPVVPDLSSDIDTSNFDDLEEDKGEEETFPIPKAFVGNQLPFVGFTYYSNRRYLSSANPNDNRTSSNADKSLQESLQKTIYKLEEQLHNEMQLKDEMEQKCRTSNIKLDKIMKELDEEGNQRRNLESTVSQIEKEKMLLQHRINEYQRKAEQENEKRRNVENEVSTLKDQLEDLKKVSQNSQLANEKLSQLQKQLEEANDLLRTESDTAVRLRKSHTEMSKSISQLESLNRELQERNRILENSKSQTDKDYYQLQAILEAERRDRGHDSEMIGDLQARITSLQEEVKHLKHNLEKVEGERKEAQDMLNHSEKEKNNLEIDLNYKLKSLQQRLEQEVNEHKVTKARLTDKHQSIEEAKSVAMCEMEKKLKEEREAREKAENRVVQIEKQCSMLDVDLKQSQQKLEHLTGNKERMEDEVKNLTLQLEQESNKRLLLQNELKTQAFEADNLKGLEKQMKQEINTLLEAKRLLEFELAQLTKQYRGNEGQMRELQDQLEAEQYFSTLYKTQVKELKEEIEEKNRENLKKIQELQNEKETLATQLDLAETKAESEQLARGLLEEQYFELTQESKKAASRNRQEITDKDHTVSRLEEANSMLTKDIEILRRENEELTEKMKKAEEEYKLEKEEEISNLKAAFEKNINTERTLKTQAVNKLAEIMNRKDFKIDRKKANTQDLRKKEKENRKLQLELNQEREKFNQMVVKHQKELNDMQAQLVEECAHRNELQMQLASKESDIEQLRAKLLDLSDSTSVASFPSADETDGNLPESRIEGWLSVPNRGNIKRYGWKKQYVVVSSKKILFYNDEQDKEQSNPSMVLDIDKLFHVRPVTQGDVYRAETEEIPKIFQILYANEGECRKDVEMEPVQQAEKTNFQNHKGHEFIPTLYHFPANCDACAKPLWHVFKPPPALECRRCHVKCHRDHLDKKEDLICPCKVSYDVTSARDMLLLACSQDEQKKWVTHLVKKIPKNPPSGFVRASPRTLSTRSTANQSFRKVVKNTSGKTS

| Compound | Ki (MRCKβ [1]; [6]) [nM] | IC50 (MRCKβ [2]; [7]) [nM] | Ki (ROCK2; [8]) [nM] | Ki (MRCKα; [9]) [nM] | IC50 (ROCK1 [3]; [10]) [nM] | Ki (ROCK1 [4]) [nM] | Ki (ROCK1 [5]) [nM] | Ki (MRCKβ [1]) [nM] | IC50 (MRCKβ [2]) [nM] | Ki (ROCK2) [nM] | Ki (MRCKα) [nM] | IC50 (ROCK1 [3]) [nM] |
| --- | --- | --- | --- | --- | --- | --- | --- | --- | --- | --- | --- | --- |
| 3-ethyl-1-[3-(5-methylthiazol-2-yl)-1H-pyrrolo[2,3-b]pyridin-4-yl]piperidin-3-amine [Example E177] | 0.0888 | 274 | 96.2 | 0.0822 | > 30000 | 33.7 |  |  |  |  |  |  |
| c1cc(N2CCC[C@@]3(CCCCN3)C2)c2c(-c3ncsn3)c[nH]c2n1 [Example E116, 3-[4-[(6S)-1,8-diazaspiro[5.5]undecan-8-yl]-1H-pyrrolo[2,3-b]pyridin-3-yl]-1,2,4-thiadiazole] | 0.0124 | 142 | 39.4 | 0.0122 | > 30000 |  | 85.1 |  |  |  |  |  |
| c1cc(N2CCC[C@@]3(CCCCN3)C2)c2c(-c3ccsn3)c[nH]c2n1 [Example E120, 3-[4-[(6S)-1,8-diazaspiro[5.5]undecan-8-yl]-1H-pyrrolo[2,3-b]pyridin-3-yl]isothiazole] | 0.0147 | 13.3 | 4.73 | 0.0049 | 15400 |  | 23.8 |  |  |  |  |  |
| c1ncc(-c2c[nH]c3nccc(N4CCC[C@@]5(CCCCN5)C4)c23)cn1 [Example E122, (6S)-8-(3-pyrimidin-5-yl-1H-pyrrolo[2,3-b]pyridin-4-yl)-1,8-diazaspiro[5.5]undecane] | 0.585 | 101 | 77.7 | 0.0284 | > 30000 |  | 196 |  |  |  |  |  |
| c1ncc(-c2c[nH]c3nccc(N4CC[C@@]5(CCCCN5)C4)c23)cn1 [Example E126, (5S)-2-(3-pyrimidin-5-yl-1H-pyrrolo[2,3-b]pyridin-4-yl)-2,6-diazaspiro[4.5]decane] | 0.057 | 1270 | 23.1 | 0.0413 | > 30000 | 68.3 |  |  |  |  |  |  |
| Cc1cnc(-c2c[nH]c3nccc(N4CC[C@@]5(CCCCN5)C4)c23)s1 [Example E131, 2-[4-[(5S)-2,6-diazaspiro[4.5]decan-2-yl]-1H-pyrrolo[2,3-b]pyridin-3-yl]-5-methyl-thiazole] | 0.0601 | 318 | 24.8 | 0.021 | > 30000 |  | 107 |  |  |  |  |  |
| c1csc(-c2c[nH]c3nccc(N4CC[C@@]5(CCCCN5)C4)c23)n1 [Example E133, 2-[4-[(5S)-2,6-diazaspiro[4.5]decan-2-yl]-1H-pyrrolo[2,3-b]pyridin-3-yl]thiazole] |  |  |  |  |  |  | 25.9 | 0.03 | 108 | 6.41 | 0.0149 |  |
| c1csc(-c2c[nH]c3nccc(N4CC[C@@]5(CCCN5)C4)c23)n1 [Example E134, 2-[4-[(5S)-1,7-diazaspiro[4.4]nonan-7-yl]-1H-pyrrolo[2,3-b]pyridin-3-yl]thiazole] |  |  |  |  |  |  | 111 | 0.303 | 787 | 30 | 0.19 | > 30000 |
| c1cc(N2CCC3(CCCN3)C2)c2c(-c3ccsn3)c[nH]c2n1 (centres unmarked) [Example E136, 3-[4-(1,7-diazaspiro[4.4]nonan-7-yl)-1H-pyrrolo[2,3-b]pyridin-3-yl]isothiazole] |  |  |  |  |  |  | 70.7 | 0.12 | 457 | 14.2 | 0.207 | > 30000 |
| c1ccc(-c2c[nH]c3nccc(N4CCC[C@@]5(CCCCN5)C4)c23)nc1 [Example E139, (6S)-8-[3-(2-pyridyl)-1H-pyrrolo[2,3-b]pyridin-4-yl]-1,8-diazaspiro[5.5]undecane] | 0.0391 | 107 | 41 | 0.0435 | > 30000 | 99.1 |  |  |  |  |  |  |
| Cc1csnc1-c1c[nH]c2nccc(N3CCCC4(CCCCN4)C3)c12 (centres unmarked) [Example E142, 3-[4-(1,8-diazaspiro[5.5]undecan-8-yl)-1H-pyrrolo[2,3-b]pyridin-3-yl]-4-methyl-isothiazole] | 0.203 | 1210 | 33600 | 0.216 | > 30000 |  | 104 |  |  |  |  |  |
| Cc1cnc(-c2c[nH]c3nccc(N4CCC[C@@]5(CCCCN5)C4)c23)s1 [Example E146, 2-[4-[(6S)-1,8-diazaspiro[5.5]undecan-8-yl]-1H-pyrrolo[2,3-b]pyridin-3-yl]-5-methyl-thiazole] | 0.0539 | 150 | 100 | 0.0493 | > 30000 |  | 203 |  |  |  |  |  |
| Fc1cccnc1-c1c[nH]c2nccc(N3CCCC4(CCCCN4)C3)c12 (centres unmarked) [Example E169, 8-[3-(3-fluoro-2-pyridyl)-1H-pyrrolo[2,3-b]pyridin-4-yl]-1,8-diazaspiro[5.5]undecane] | 0.106 | 732 | 261 | 0.189 |  |  | 861 |  |  |  |  |  |
| Fc1ccc(-c2c[nH]c3nccc(N4CCCC5(CCCCN5)C4)c23)nc1 (centres unmarked) [Example E170, 8-[3-(5-fluoro-2-pyridyl)-1H-pyrrolo[2,3-b]pyridin-4-yl]-1,8-diazaspiro[5.5]undecane] | 0.1 | 612 | 165 | 0.17 |  |  | 564 |  |  |  |  |  |
| Fc1cncc(-c2c[nH]c3nccc(N4CCCC5(CCCCN5)C4)c23)c1 (centres unmarked) [Example E171, 8-[3-(5-fluoro-3-pyridyl)-1H-pyrrolo[2,3-b]pyridin-4-yl]-1,8-diazaspiro[5.5]undecane] | 0.0648 | 233 | 85.2 | 0.0639 |  |  | 207 |  |  |  |  |  |
| c1cc(-c2c[nH]c3nccc(N4CCC[C@@]5(CCCCN5)C4)c23)cnn1 [Example E174, (6S)-8-(3-pyridazin-4-yl-1H-pyrrolo[2,3-b]pyridin-4-yl)-1,8-diazaspiro[5.5]undecane] | 0.0256 | 50.9 |  |  | 2250 |  | 405 |  |  |  |  |  |
| CC1(N)CCCN(c2ccnc3[nH]cc(-c4nccs4)c23)C1 (centres unmarked) [Example E176, 3-methyl-1-(3-thiazol-2-yl-1H-pyrrolo[2,3-b]pyridin-4-yl)piperidin-3-amine] | 0.0923 | 255 | 42 | 0.0934 |  |  | 67.1 |  |  |  |  |  |
| N#Cc1c[nH]c2nccc(N3CCC[C@@]4(CCCCN4)C3)c12 [Example E187, 4-[(6S)-1,8-diazaspiro[5.5]undecan-8-yl]-1H-pyrrolo[2,3-b]pyridine-3-carbonitrile] | 0.179 |  | 44.2 | 0.249 |  | 152 |  |  | 782 |  |  | > 30000 |
| CN1CCCC[C@@]12CCCN(c1ccnc3[nH]cc(-c4ccncn4)c13)C2 [Example E206, (6S)-1-methyl-8-(3-pyrimidin-4-yl-1H-pyrrolo[2,3-b]pyridin-4-yl)-1,8-diazaspiro[5.5]undecane] | 0.0277 | 138 | 4.19 | 0.0189 | > 30000 | 20.6 |  |  |  |  |  |  |
| CCN1CCCC[C@@]12CCCN(c1ccnc3[nH]cc(-c4ccncn4)c13)C2 [Example E207, (6S)-1-ethyl-8-(3-pyrimidin-4-yl-1H-pyrrolo[2,3-b]pyridin-4-yl)-1,8-diazaspiro[5.5]undecane] | 0.0395 | 170 | 8.34 | 0.0275 | > 30000 | 20 |  |  |  |  |  |  |
| CCN1CCCCC12CCCN(c1ccnc3[nH]cc(-c4nccs4)c13)C2 (centres unmarked) [Example E209, 2-[4-(1-ethyl-1,8-diazaspiro[5.5]undecan-8-yl)-1H-pyrrolo[2,3-b]pyridin-3-yl]thiazole] | 0.0389 | 109 | 29.9 | 0.101 | > 30000 |  | 127 |  |  |  |  |  |
| CCN1CCCCC12CCCN(c1ccnc3[nH]cc(-c4ncc(C)s4)c13)C2 (centres unmarked) [Example E210, 2-[4-(1-ethyl-1,8-diazaspiro[5.5]undecan-8-yl)-1H-pyrrolo[2,3-b]pyridin-3-yl]-5-methyl-thiazole] | 0.0634 | 701 | 152 | 0.127 | > 30000 |  | 50200 |  |  |  |  |  |
| CCN1CCCCC12CCCN(c1ccnc3[nH]cc(C#N)c13)C2 (centres unmarked) [Example E211, 4-(1-ethyl-1,8-diazaspiro[5.5]undecan-8-yl)-1H-pyrrolo[2,3-b]pyridine-3-carbonitrile] | 0.351 |  | 34.3 | 0.631 |  | 245 |  |  | 952 |  |  | > 30000 |
| c1csc(-c2c[nH]c3nccc(O[C@@H]4CCCNC4)c23)n1 [Example E212, 2-[4-[[(3R)-3-piperidyl]oxy]-1H-pyrrolo[2,3-b]pyridin-3-yl]thiazole] | 0.184 | 426 | 7.57 | 0.185 | 14400 |  | 29.9 |  |  |  |  |  |
